Measured values: patent publication US9242001B2, “Cationic lipids for therapeutic agent delivery formulations” (Nitto Denko Corporation, priority 2011, dated 2016)

Test system: gp46 mRNA
Experiment: pHSC in vitro assay, gp46 gene knockdown by qRT-PCR
Type: cell-based, rat
Settings: @ 50 nM

Row | SMILES | in vitro (pHSC) % KD
1 | CCCCC/C=C\C/C=C\CCCCCCCC(=O)OCCN(CCOC(=O)CCCCCCC/C=C\C/C=C\CCCCC)C(=O)C[N+](C)(C)CCO.[Br-] [HEDC-DLin, 2-(bis(2-((9Z,12Z)-octadeca-9,12-dienoyloxy)ethyl)amino)-N-(2-hydroxyethyl)-N,N-dimethyl-2-oxoethanaminium bromide] | i. 50% @ 50 nM
2 | CCCCCCCCCCCC(=O)OCCN(CCOC(=O)CCCCCCCCCCC)C(=O)C[N+](C)(C)CCO.[Br-] [HEDC-12, 2-(bis(2-(dodecanoyloxy)ethyl)amino)-N-(2-hydroxyethyl)-N,N-dimethyl-2-oxoethanaminium bromide] | i. 0% @ 50 nM
